# Data as given in patent US7285548B2, “Urea substituted benzothiazoles” (Hoffmann-La Roche Inc., priority 2003, dated 2007).
# What was measured:
# [1] = molecular target: T1, human adenosine A2A receptor (Homo sapiens, UniProt P29274); assay: [3H]-SCH-58261 binding assay, human adenosine A2A receptor (CHO cell membranes, SPA); settings: recombinant human A2A receptor in CHO membranes; [3H]-SCH-58261 1 nM; Ki by Cheng-Prussoff equation; read-out: hA2 (pKi) (converted)
# T1 construct: expressed in transfected cells; host or cells: CHO cells, semliki forest virus expression system; membrane preparation
# T1 sequence (P29274 whole entry): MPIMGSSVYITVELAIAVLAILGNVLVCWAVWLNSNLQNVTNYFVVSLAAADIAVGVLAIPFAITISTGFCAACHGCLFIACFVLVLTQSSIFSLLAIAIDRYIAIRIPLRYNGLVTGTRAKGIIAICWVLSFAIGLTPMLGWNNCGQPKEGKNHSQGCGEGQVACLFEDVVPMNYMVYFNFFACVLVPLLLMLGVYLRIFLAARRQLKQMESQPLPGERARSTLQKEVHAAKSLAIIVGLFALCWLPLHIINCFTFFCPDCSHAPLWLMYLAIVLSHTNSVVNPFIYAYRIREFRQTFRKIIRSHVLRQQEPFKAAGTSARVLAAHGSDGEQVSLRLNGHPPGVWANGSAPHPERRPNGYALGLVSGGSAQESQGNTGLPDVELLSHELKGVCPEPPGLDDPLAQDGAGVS
# Description: Human Adenosine A2A Receptor
# The human adenosine A2A receptor was recombinantly expressed in Chinese hamster ovary (CHO) cells using the semliki forest virus expression system. Cells were harvested, washed twice by centrifugation, homogenized and again washed by centrifugation. The final washed membrane pellet was suspended in a Tris (50 mM) buffer containing 120 mM NaCl, 5 mM KCl, 2 mM CaCl2 and 10 mM MgCl2 (pH 7.4) (buffer A). The [^3H]-SCH-58261 (Dionisotti et al., 1997, Br J Pharmacol 121, 353; 1nM) binding assay was carried out in 96-well plates in the presence of 2.5 μg of membrane protein, 0.5 mg of Ysi-poly-l-lysine SPA beads and 0.1 U adenosine deaminase in a final volume of 200 μl of buffer A. Non-specific binding was defined using xanthine amine congener (XAC; 2 μM). Compounds were tested at 10 concentrations from 10 μM-0.3 nM. All assays were conducted in duplicate and repeated at least two times. Assay plates were incubated for 1 hour at room temperature before centrifugation and then bound ligand determined using a Packard Topcount scintillation counter. IC50 values were calculated using a non-linear curve fitting program and Ki values calculated using the Cheng-Prussoff equation.
melting point,Ki [1] [nM],SMILES
191 to 193 °C,12.6,"COc1ccc(N2CCOCC2)c2sc(NC(=O)N(C)C3CC4CCC3O4)nc12 (racemic) [Example 9, (rac)-(endo)-3-(4-Methoxy-7-morpholin-4-yl-benzothiazol-2-yl)-1-methyl-1-(7-oxa-bicyclo[2.2.1]hept-2-yl)-urea]"
189 °C,7.94,"COc1ccc(N2CCOCC2)c2sc(NC(=O)N(C)C3CC4CC3CC4O)nc12 (racemic) [Example 10, (rac)-1-(5-exo-Hydroxy-bicyclo[2.2.1]hept-2-exo-yl)-3-(4-methoxy-7-morpholin-4-yl-benzothiazol-2-yl)-1-methyl-urea]"
165 to 176 °C,50.1,"COc1ccc(N2CCOCC2)c2sc(NC(=O)N(C)C34CC5CC(CC(C5)C3)C4)nc12 [Example 12, 1-Adamantan-1-yl-3-(4-methoxy-7-morpholin-4-yl-benzothiazol-2-yl)-1-methyl-urea]"
229 to 231 °C,10,"COc1ccc(N2CCOCC2)c2sc(NC(=O)N3CC4CCC(C3)O4)nc12 [Example 13, 8-Oxa-3-aza-bicyclo[3.2.1]octane-3-carboxylic acid (4-methoxy-7-morpholin-4-yl-benzothiazol-2-yl)-amide]"

# More lines, now with the values behind:
SMILES,melting point,Ki [1] [nM]
"COc1ccc(N2CCOCC2)c2sc(NC(=O)N(C)C3CCC(CO)C3)nc12 (racemic) [Example 5, (rac),(cis)-1-(3-Hydroxymethyl-cyclopentyl)-3-(4-methoxy-7-morpholin-4-yl-benzothiazol-2-yl)-1-methyl-urea]",115 to 118 °C,3.98
"COc1ccc(N2CCOCC2)c2sc(NC(=O)N(C)C3CC4CCC3C4)nc12 (racemic) [Example 6, 1-(endo)-(rac)-Bicyclo[2.2.1]hept-2-yl-3-(4-methoxy-7-morpholin-4-yl-benzothiazol-2-yl)-1-methyl-urea]",199 to 202 °C,7.94
"COc1ccc(N2CCOCC2)c2sc(NC(=O)N(C)C3CC4CCC3O4)nc12 (single isomer, unassigned) [Example 7, (exo)-(+)-3-(4-Methoxy-7-morpholin-4-yl-benzothiazol-2-yl)-1-methyl-1-(7-oxa-bicyclo[2.2.1]hept-2-yl)-urea]",202 to 204 °C,3.16
"COc1ccc(N2CCOCC2)c2sc(NC(=O)N(C)C3CC4CCC3O4)nc12 (single isomer, unassigned) [Example 8, (exo)-(−)-3-(4-Methoxy-7-morpholin-4-yl-benzothiazol-2-yl)-1-methyl-1-(7-oxa-bicyclo[2.2.1]hept-2-yl)-urea]",202 to 203 °C,10
"COc1ccc(N2CCOCC2)c2sc(NC(=O)N(C)C3CCC(C(F)(F)F)CC3)nc12 (stereo not drawn) [Example 1, 3-(4-Methoxy-7-morpholin-4-yl-benzothiazol-2-yl)-1-methyl-1-(4-trifluoromethyl-cyclohexyl)-urea]",157 to 167 °C,20
"COc1ccc(N2CCOCC2)c2sc(NC(=O)N(C)[C@H]3CC[C@H](C)CC3)nc12 [Example 2, (trans)-3-(4-Methoxy-7-morpholin-4-yl-benzothiazol-2-yl)-1-methyl-1-(4-methyl-cyclohexyl)-urea]",171 to 173 °C,15.8
"COc1ccc(N2CCOCC2)c2sc(NC(=O)N(C)[C@H]3CC[C@H](CO)CC3)nc12 [Example 3, (trans)-1-(4-Hydroxymethyl-cyclohexyl)-3-(4-methoxy-7-morpholin-4-yl-benzothiazol-2-yl)-1-methyl-urea]",190 °C (dec.),15.8
"COC[C@H]1CC[C@H](N(C)C(=O)Nc2nc3c(OC)ccc(N4CCOCC4)c3s2)CC1 [Example 4, (trans)-1-(4-Methoxymethyl-cyclohexyl)-3-(4-methoxy-7-morpholin-4-yl-benzothiazol-2-yl)-1-methyl-urea]",141 to 143 °C,20
